# Measured values taken from publication PMC8267566, “Human GPR17 missense variants identified in metabolic disease patients have distinct downstream signaling profiles” (The Journal of Biological Chemistry, 2021).
# Experiments:
# Assay type in all cases: cell-based
# [1] = target: T1, hGPR17L-R248Q (Homo sapiens, UniProt Q13304, R248Q); experiment: GloSensor cAMP assay, inhibition of forskolin-stimulated cAMP
# T1 construct: expressed in transfected cells; host or cells: HEK293 (ATCC CRL-1573), transient transfection
# Protocol: (§1) HEK293 cells were seeded at 20,000 cells/well into white, opaque 96-well plates. The next day, cells were transiently cotransfected with pGloSensor-cAMP-22F and pcDNA3-HA-hGPR17L or pcDNA3-HA-hGPR17L-variants using lipofectamine 3000. Twenty-four hours posttransfection, growth medium and transfection mix were aspirated and replaced with 100 μl/well equilibration medium (2% Promega GloSensor cAMP reagent [E1291; Promega Corporation] in CO2-independent medium) and incubated at room temperature for 2 h. Baseline luminescence was read on a Molecular Devices SpectraMax iD5 plate reader (Molecular Devices) at ambient room temperature for 8 min. Subsequently, 10 μl/well MDL29,951 diluted in assay buffer (HBSS, 20 mM HEPES, pH 7.2) was added and luminescence was read for 10 min. Finally, 10 μl/well forskolin (1099; Tocris Bioscience) diluted in assay buffer was added and luminescence was measured for 20–30 min. The average luminescence value for the 14–20 min time points for each well was normalized to their average baseline luminescence value and expressed as a percentage of the forskolin-stimulated response within each transfection condition.
# [2] = target: T2, hGPR17L-G136S (Homo sapiens, UniProt Q13304, G136S); experiment: as above
# T2 construct: expressed in transfected cells; host or cells: HEK293 (ATCC CRL-1573), transient transfection
# Protocol: as §1
# [3] = target: T3, hGPR17L-WT (Homo sapiens, UniProt Q13304); experiment: as above
# T3 construct: expressed in transfected cells; host or cells: HEK293 (ATCC CRL-1573), transient transfection of pcDNA3-HA-hGPR17L
# Protocol: as §1
# [4] = target: T4, hGPR17L-G354V (Homo sapiens, UniProt Q13304, G354V); experiment: as above
# T4 construct: expressed in transfected cells; host or cells: HEK293 (ATCC CRL-1573)
# Protocol: as §1
# [5] = target: T5, hGPR17L-V103M (Homo sapiens, UniProt Q13304, V103M); experiment: as above
# T5 construct: expressed in transfected cells; host or cells: HEK293 (ATCC CRL-1573), transient transfection
# Protocol: as §1
# [6] = target: T6, hGPR17L-A131T (Homo sapiens, UniProt Q13304, A131T); experiment: as above
# T6 construct: expressed in transfected cells; host or cells: HEK293 (ATCC CRL-1573), transient transfection
# Protocol: as §1
# [7] = target: T7, hGPR17L-D105N (Homo sapiens, UniProt Q13304, D105N)
# T7 construct: expressed in transfected cells; host or cells: HEK293 (ATCC CRL-1573), transient transfection
# Protocol: (§2) For agonist-mediated stimulatory cAMP assays, HEK293 cells were seeded and transfected as noted above. Cells were treated with 100 ng/ml pertussis toxin overnight (Sigma-Aldrich P2980). Twenty-four hours posttransfection, growth medium and transfection mix were aspirated and replaced with 100 μl/well equilibration medium (2% Promega GloSensor cAMP reagent [E1291; Promega Corporation] in CO2-independent medium) containing 100 ng/ml pertussis toxin and incubated at room temperature for 2 h. Baseline luminescence was read every 2 min on a Molecular Devices SpectraMax iD5 plate reader (Molecular Devices) at ambient room temperature for 8 min. Subsequently, 10 μl/well MDL29,951 diluted in assay buffer (HBSS, 20 mM HEPES, pH 7.2) was added and luminescence was read every 2 min for 16 min. Within each well, the luminescence values for each time point were normalized to their average baseline luminescence values. The average luminescence values for the time points between 8 and 16 min after MDL29,951 addition were expressed as a percentage of the maximum response observed for hGPR17L-WT.
# [8] = target: T2, hGPR17L-G136S
# Protocol: as §2
# [9] = target: T3, hGPR17L-WT
# Protocol: as §2
# [10] = target: T8, hGPR17L-V96M (Homo sapiens, UniProt Q13304, V96M)
# T8 construct: expressed in transfected cells; host or cells: HEK293 (ATCC CRL-1573), transient transfection
# Protocol: as §2
# [11] = target: T9, hGPR17L-R301H (Homo sapiens, UniProt Q13304, R301H); experiment: GloSensor stimulatory cAMP assay with pertussis toxin pretreatment
# T9 construct: expressed in transfected cells; host or cells: HEK293 (ATCC CRL-1573)
# Protocol: as §2
# [12] = target: T10, hGPR17L-F43L (Homo sapiens, UniProt Q13304, F43L); experiment: as above
# T10 construct: expressed in transfected cells; host or cells: HEK293 (ATCC CRL-1573), transient transfection
# Protocol: as §2
# [13] = target: T1, hGPR17L-R248Q; experiment: as above
# Protocol: as §2
# [14] = target: T4, hGPR17L-G354V; experiment: as above
# Protocol: as §2
# [15] = target: T5, hGPR17L-V103M; experiment: as above
# Protocol: as §2
# [16] = target: T6, hGPR17L-A131T; experiment: as above
# Protocol: as §2
# [17] = HEK293, inhibition of 3 μM forskolin-stimulated cAMP
# [18] = read-out: cAMP IC50, HEK293, inhibition of 3 μM forskolin-stimulated cAMP
# [19] = read-out: Stimulatory cAMP EC50
# T9 sequence (Q13304 whole entry R301H): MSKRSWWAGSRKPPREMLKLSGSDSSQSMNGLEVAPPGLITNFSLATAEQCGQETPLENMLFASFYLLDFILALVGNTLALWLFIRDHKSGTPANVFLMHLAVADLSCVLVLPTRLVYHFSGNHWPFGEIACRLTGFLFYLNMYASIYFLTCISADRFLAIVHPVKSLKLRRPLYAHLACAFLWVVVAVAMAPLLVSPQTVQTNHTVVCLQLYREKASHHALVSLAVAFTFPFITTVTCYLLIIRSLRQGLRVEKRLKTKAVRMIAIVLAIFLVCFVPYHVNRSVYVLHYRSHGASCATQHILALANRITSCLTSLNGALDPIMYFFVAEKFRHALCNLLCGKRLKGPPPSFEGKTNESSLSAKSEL
# T6 sequence (Q13304 whole entry A131T): as the sequence (Q13304 whole entry R301H) above, with A131T, H301R counted along it
# T10 sequence (Q13304 whole entry F43L): as the sequence (Q13304 whole entry R301H) above, with F43L, H301R counted along it
# T2 sequence (Q13304 whole entry G136S): as the sequence (Q13304 whole entry R301H) above, with G136S, H301R counted along it
# T5 sequence (Q13304 whole entry V103M): as the sequence (Q13304 whole entry R301H) above, with V103M, H301R counted along it
# T1 sequence (Q13304 whole entry R248Q): as the sequence (Q13304 whole entry R301H) above, with R248Q, H301R counted along it
# T3 sequence (Q13304 whole entry): as the sequence (Q13304 whole entry R301H) above, with H301R counted along it
# T4 sequence (Q13304 whole entry G354V): as the sequence (Q13304 whole entry R301H) above, with H301R, G354V counted along it
# T7 sequence (Q13304 whole entry D105N): as the sequence (Q13304 whole entry R301H) above, with D105N, H301R counted along it
# T8 sequence (Q13304 whole entry V96M): as the sequence (Q13304 whole entry R301H) above, with V96M, H301R counted along it
smiles,measurement,setting,value
"O=C(O)CCc1c(C(=O)O)[nH]c2cc(Cl)cc(Cl)c12 [MDL29,951]",cAMP Efficacy (% inhibition),"[1]; HEK293, 3 μM forskolin",41 ± 3.9 % inhibition
same,cAMP 10 μM MDL +3 μM FSK (% of FSK),"[1]; HEK293, 10 μM MDL29,951",84 ± 5.5 % of FSK
same,cAMP 100 μM MDL +3 μM FSK (% of FSK),"[1]; HEK293, 100 μM MDL29,951",98 ± 6.7 % of FSK
same,cAMP pIC50 ± SEM,[1]; [17],8.73 ± 2.2
same,IC50,[1]; [18],0.0019 µM
same,fold less potent for inhibition of forskolin-stimulated cAMP relative to hGPR17L-WT,[2],approximately 400 fold
same,cAMP Efficacy (% inhibition),"[2]; HEK293, 3 μM forskolin",39 ± 2.3 % inhibition
same,cAMP 10 μM MDL +3 μM FSK (% of FSK),"[2]; HEK293, 10 μM MDL29,951",65 ± 5.0 % of FSK
same,cAMP 100 μM MDL +3 μM FSK (% of FSK),"[2]; HEK293, 100 μM MDL29,951",60 ± 3.4 % of FSK
same,cAMP pIC50 ± SEM,[2]; [17],5.89 ± 0.30
same,IC50,[2]; [18],1.3 µM
same,cAMP Efficacy (% inhibition),"[3]; HEK293, 3 μM forskolin",47 ± 2.5 % inhibition
same,cAMP 10 μM MDL +3 μM FSK (% of FSK),"[3]; HEK293, 10 μM MDL29,951",92 ± 4.4 % of FSK
same,cAMP 100 μM MDL +3 μM FSK (% of FSK),"[3]; HEK293, 100 μM MDL29,951",115 ± 6.1 % of FSK
same,cAMP pIC50 ± SEM,[3]; [17],8.52 ± 0.13
same,IC50,[3]; [18],0.003 µM
same,cAMP Efficacy (% inhibition),"[4]; HEK293, 3 μM forskolin",42 ± 6.7 % inhibition
same,cAMP 10 μM MDL +3 μM FSK (% of FSK),"[4]; HEK293, 10 μM MDL29,951",91 ± 13 % of FSK
same,cAMP 100 μM MDL +3 μM FSK (% of FSK),"[4]; HEK293, 100 μM MDL29,951",113 ± 10 % of FSK
same,cAMP pIC50 ± SEM,[4]; [17],8.34 ± 0.25
same,IC50,[4]; [18],0.0046 µM
same,cAMP Efficacy (% inhibition),"[5]; HEK293, 3 μM forskolin",40 ± 1.3 % inhibition
same,cAMP 10 μM MDL +3 μM FSK (% of FSK),"[5]; HEK293, 10 μM MDL29,951",81 ± 4.0 % of FSK
same,cAMP 100 μM MDL +3 μM FSK (% of FSK),"[5]; HEK293, 100 μM MDL29,951",101 ± 4.0 % of FSK
same,cAMP pIC50 ± SEM,[5]; [17],9.24 ± 0.41
same,IC50,[5]; [18],0.00057 µM
same,cAMP Efficacy (% inhibition),"[6]; HEK293, 3 μM forskolin",44 ± 4.5 % inhibition
same,cAMP 10 μM MDL +3 μM FSK (% of FSK),"[6]; HEK293, 10 μM MDL29,951",77 ± 3.5 % of FSK
same,cAMP 100 μM MDL +3 μM FSK (% of FSK),"[6]; HEK293, 100 μM MDL29,951",109 ± 5.3 % of FSK
same,cAMP pIC50 ± SEM,[6]; [17],8.31 ± 0.13
same,IC50,[6]; [18],0.0049 µM
same,stimulatory cAMP response,[7],unable to promote stimulatory cAMP responses
same,stimulatory cAMP response,[8],unable to promote stimulatory cAMP responses
same,Stimulatory cAMP Efficacy (% of WT Emax),[9],100 % of WT Emax
same,Stimulatory cAMP pEC50 ± SEM,[9],5.18 ± 0.04
same,maximum stimulatory cAMP response,[9],1.21 ± 0.24 ΔRLU/RLU
same,EC50,[9]; [19],6.6 µM
same,stimulatory cAMP response,[10],unable to promote stimulatory cAMP responses
same,Stimulatory cAMP pEC50 ± SEM,[11],4.84 ± 0.12
same,Stimulatory cAMP Efficacy (% of WT Emax),"[11]; hGPR17L-R301H, HEK293, 100 ng/ml pertussis toxin overnight",68 ± 11 % of WT Emax
same,EC50,[11]; [19],16 µM
same,Stimulatory cAMP pEC50 ± SEM,[12],5.21 ± 0.13
same,Stimulatory cAMP Efficacy (% of WT Emax),"[12]; hGPR17L-F43L, HEK293, 100 ng/ml pertussis toxin overnight",99 ± 20 % of WT Emax
same,EC50,[12]; [19],6.2 µM
same,Stimulatory cAMP pEC50 ± SEM,[13],5.22 ± 0.01
same,Stimulatory cAMP Efficacy (% of WT Emax),"[13]; hGPR17L-R248Q, HEK293, 100 ng/ml pertussis toxin overnight",41 ± 1.7 % of WT Emax
same,EC50,[13]; [19],6.1 µM
same,Stimulatory cAMP pEC50 ± SEM,[14],4.88 ± 0.12
same,Stimulatory cAMP Efficacy (% of WT Emax),"[14]; hGPR17L-G354V, HEK293, 100 ng/ml pertussis toxin overnight",105 ± 23 % of WT Emax
same,EC50,[14]; [19],14 µM
same,Stimulatory cAMP pEC50 ± SEM,[15],4.33 ± 0.36
same,"loss of potency, fold shift in EC50 vs hGPR17L-WT (stimulatory cAMP)",[15],3–7 fold
same,Stimulatory cAMP Efficacy (% of WT Emax),"[15]; hGPR17L-V103M, HEK293, 100 ng/ml pertussis toxin overnight",150 ± 48 % of WT Emax
same,EC50,[15]; [19],47 µM
same,Stimulatory cAMP pEC50 ± SEM,[16],4.72 ± 0.05
same,"loss of potency, fold shift in EC50 vs hGPR17L-WT (stimulatory cAMP)",[16],3–7 fold
same,Stimulatory cAMP Efficacy (% of WT Emax),"[16]; hGPR17L-A131T, HEK293, 100 ng/ml pertussis toxin overnight",105 ± 21 % of WT Emax
same,EC50,[16]; [19],19 µM
